# Data taken from patent publication EP0514268A1, “Substituted amino acid azetidinyl pyridone derivatives, their preparation and use as medicines” (LABORATORIOS DEL DR. ESTEVE, S.A., priority 1991, dated 1992).
# Like-named read-outs stand apart in the source and are kept apart here.
# Legend:
# [1] = tested on: Serr. marcescens ATCC 13880; experiment: Antimicrobial activity, agar dilution; type: cell-based, Serratia marcescens; settings: Agar Dextrose dilutions, 37°C, 20 heures; for MIC: Serratia marcescens, ATCC13880, 20 h, read-out: Activité pharmacologique antimicrobienne (concentrations)
# Text: (§1) L'activité pharmacologique antimicrobienne de ces composés a été étudiée selon les références exposées ci-dessous.
# (§2) Activité pharmacologique antimicrobienne : G.L. Daquet et Y.A. Chabbect, techniques en bactériologie, Vol. 3, Flammarion Médecine-Sciences, Paris 1972, et W.B. Hugo et A.D. Rusell, Pharmaceutical Microbiology, Blackwell Scientific Publications, London, 1977.
# (§3) Milieu de culture et solvant : Agar d'antibiotiques n° 1 (Oxoid CM 327) Bouillon de triptone-soja (Oxoid CM 129) Solution Physiologique Ringer 1/4 (Oxoid BR 52) Agar Dextrose (BBL 11165)
# (§4) Microorganismes : "Bacillus subtilis" ATCC 6633 "Citrobacter freundii" ATCC 112606 "Enterobacter aerogenes" ATCC 15038 "Enterobacter cloacae" ATCC 23355 "Bacillus cereus" ATCC 1178 "Escherichia coli" ATCC 10799 "Escherichia coli" ATCC 23559 "Klebsiella pneumoniae" ATCC 10031 "Proteus vulgaris" ATCC 8427 "Morg. morganii" ATCC 8019 "Pseudomonas aeruginosa" ATCC 9721 "Pseudomonas aeruginosa" ATCC 10145 "Salmonella typhimurium" ATCC 14028 "Salmonella typhimurium" ATCC 6539 "Serratia marcescens" ATCC 13880 "Shigella flexnerii" ATCC 12022 "Staphylococcusepidermis" ATCC 155-1 "Staphylococcus aureus" ATCC 25178 "Streptococcus faecalis" ATCC 10541.
# (§5) Chacun des microorganismes est ensemencé par strie dans des tubes d'Agar d'antibiotiques n° 1, et mis en incubation pendant 20 heures à 37°C. Ensuite, on prend une anse de culture, on ensemence dans un bouillon de Triptone-soja et on incube pendant 20 heures à 37°C. On dilue à 1/4 la culture obtenue avec une solution physiologique Ringer, de façon à obtenir une suspension normalisée de […] pour chaque organisme.
# (§6) A partir d'une solution de 100 µg/ml, chaque produit est dilué dans l'Agar Dextrose (préalablement fondu et maintenu à 50°C) par dilutions successives de façon à obtenir les concentrations suivantes : 64-32-16-8-4-2-1-0,5-0,25-0,125 µg de dérivé/ml du milieu.
# (§7) Postérieurement, chaque concentration de chaque produit est répartie dans des boîtes de Petri de 10 cm de diamètre, à raison de 10 ml de milieu par boîte et autant de boîtes que de microorganismes à tester.
# (§8) Une fois le milieu refroidi, les boîtes sont ensemencées avec les inoculations à raison de 0,4 ml d'inoculation par boîte. On les étend avec une anse de Driglasky et on recueille le surnageant. Les boîtes ensemencées sont incubées à 37°C pendant 20 heures.
# (§9) Les résultats obtenus sont décrits dans les tableaux suivants. Les concentrations sont données en µg/ml.
# [2] = tested on: Ent. cloacae ATCC 23355; experiment: Antimicrobial activity, agar dilution; type: cell-based, Enterobacter cloacae; settings: Agar Dextrose dilutions, 37°C, 20 heures; for MIC: Enterobacter cloacae, ATCC23355, 20 h, read-out: Activité pharmacologique antimicrobienne (concentrations)
# Text: as §1, §2, §3, §4, §5, §6, §7, §8, §9
# [3] = tested on: Staph. aureus ATCC 25178; experiment: Antimicrobial activity, agar dilution; type: cell-based, Staphylococcus aureus; settings: Agar Dextrose dilutions, 37°C, 20 heures; for MIC: Staphylococcus aureus, ATCC25178, 20 h, read-out: Activité pharmacologique antimicrobienne (concentrations)
# Text: as §1, §2, §3, §4, §5, §6, §7, §8, §9
# [4] = tested on: Strep. faecalis ATCC 10541; experiment: Antimicrobial activity, agar dilution; type: cell-based, Streptococcus faecalis; settings: Agar Dextrose dilutions, 37°C, 20 heures; for MIC: Enterococcus faecalis, ATCC10541, 20 h, read-out: Activité pharmacologique antimicrobienne (concentrations)
# Text: as §1, §2, §3, §4, §5, §6, §7, §8, §9
# [5] = tested on: Sal. typhimurium ATCC 14028; experiment: Antimicrobial activity, agar dilution; type: cell-based, Salmonella typhimurium; settings: Agar Dextrose dilutions, 37°C, 20 heures; for MIC: Salmonella enterica, 20 h, read-out: Activité pharmacologique antimicrobienne (concentrations)
# Text: as §1, §2, §3, §4, §5, §6, §7, §8, §9
# [6] = Solubility in water and at pH 7.4; type: physicochemical
# Text: Un grand nombre des composés de l'invention manifestent une augmentation de la solubilité dans l'eau ainsi que de la solubilité à pH 7,4 lorsqu'on compare avec les composés de référence. L'augmentation de solubilité au pH physiologique peut favoriser l'absorption du produit et la solubilité élevée dans l'eau permet l'administration du composé par voie parentérale.
# [7] = tested on: Citr. freundii ATCC 11606; experiment: Antimicrobial activity, agar dilution; type: cell-based, Citrobacter freundii; settings: Agar Dextrose dilutions, 37°C, 20 heures; for MIC: Citrobacter freundii, ATCC11606, 20 h, read-out: Activité pharmacologique antimicrobienne (concentrations)
# Text: as §1, §2, §3, §4, §5, §6, §7, §8, §9
# [8] = tested on: Sal. typhi ATCC 6539; experiment: Antimicrobial activity, agar dilution; type: cell-based; settings: Salmonella enterica, 20 h, read-out: Activité pharmacologique antimicrobienne (concentrations)
# Text: as §1, §2, §3, §4, §5, §6, §7, §8, §9
# [9] = tested on: Ps. aeruginosa ATCC 9721; experiment: Antimicrobial activity, agar dilution; type: cell-based; settings: Pseudomonas aeruginosa, ATCC9721, 20 h, Agar Dextrose dilutions, 37°C, 20 heures, read-out: Activité pharmacologique antimicrobienne (concentrations)
# Text: as §1, §2, §3, §4, §5, §6, §7, §8, §9
# [10] = tested on: Escherichia coli ATCC 23559; experiment: Antimicrobial activity, agar dilution; type: cell-based; settings: Agar Dextrose dilutions, 37°C, 20 heures; for MIC: Escherichia coli, ATCC23559, 20 h, read-out: Activité pharmacologique antimicrobienne (concentrations)
# Text: as §1, §2, §3, §4, §5, §6, §7, §8, §9
# [11] = tested on: Morg. morganii ATCC 8019; experiment: Antimicrobial activity, agar dilution; type: cell-based; settings: Agar Dextrose dilutions, 37°C, 20 heures; for MIC: Morganella morganii, ATCC8019, 20 h, read-out: Activité pharmacologique antimicrobienne (concentrations)
# Text: as §1, §2, §3, §4, §5, §6, §7, §8, §9
# [12] = tested on: Proteus vulgaris ATCC 8427; experiment: Antimicrobial activity, agar dilution; type: cell-based; settings: Agar Dextrose dilutions, 37°C, 20 heures; for MIC: Proteus vulgaris, ATCC8427, 20 h, read-out: Activité pharmacologique antimicrobienne (concentrations)
# Text: as §1, §2, §3, §4, §5, §6, §7, §8, §9
# [13] = tested on: Bacillus cereus ATCC 11778; experiment: Antimicrobial activity, agar dilution; type: cell-based; settings: Agar Dextrose dilutions, 37°C, 20 heures; for MIC: Bacillus cereus, ATCC11778, 20 h, read-out: Activité pharmacologique antimicrobienne (concentrations)
# Text: as §1, §2, §3, §4, §5, §6, §7, §8, §9
# [14] = tested on: Ps. aeruginosa ATCC 10145; experiment: Antimicrobial activity, agar dilution; type: cell-based; settings: Pseudomonas aeruginosa, ATCC10145, 20 h, Agar Dextrose dilutions, 37°C, 20 heures, read-out: Activité pharmacologique antimicrobienne (concentrations)
# Text: as §1, §2, §3, §4, §5, §6, §7, §8, §9
# [15] = tested on: Staph. epidermidis ATCC 155-1; experiment: Antimicrobial activity, agar dilution; type: cell-based; settings: Agar Dextrose dilutions, 37°C, 20 heures; for MIC: Staphylococcus epidermidis, ATCC155, 20 h, read-out: Activité pharmacologique antimicrobienne (concentrations)
# Text: as §1, §2, §3, §4, §5, §6, §7, §8, §9
# [16] = tested on: Escherichia coli ATCC 10799; experiment: Antimicrobial activity, agar dilution; type: cell-based; settings: Agar Dextrose dilutions, 37°C, 20 heures; for MIC: Escherichia coli, ATCC10799, 20 h, read-out: Activité pharmacologique antimicrobienne (concentrations)
# Text: as §1, §2, §3, §4, §5, §6, §7, §8, §9
# [17] = tested on: Bacillus subtilis ATCC 6633; experiment: Antimicrobial activity, agar dilution; type: cell-based; settings: ATCC6633, 20 h, Agar Dextrose dilutions, 37°C, 20 heures, read-out: Activité pharmacologique antimicrobienne (concentrations)
# Text: as §1, §2, §3, §4, §5, §6, §7, §8, §9
# [18] = tested on: Shigella flexnerii ATCC 12022; experiment: Antimicrobial activity, agar dilution; type: cell-based; settings: ATCC12022, 20 h, Agar Dextrose dilutions, 37°C, 20 heures, read-out: Activité pharmacologique antimicrobienne (concentrations)
# Text: as §1, §2, §3, §4, §5, §6, §7, §8, §9
# [19] = tested on: Kleb. pneumoniae ATCC 10031; experiment: Antimicrobial activity, agar dilution; type: cell-based, Klebsiella pneumoniae; settings: Agar Dextrose dilutions, 37°C, 20 heures; for MIC: Klebsiella pneumoniae, ATCC10031, 20 h, read-out: Activité pharmacologique antimicrobienne (concentrations)
# Text: as §1, §2, §3, §4, §5, §6, §7, §8, §9
# [20] = tested on: Ent. aerogenes ATCC 15038; experiment: Antimicrobial activity, agar dilution; type: cell-based, Enterobacter aerogenes; settings: Klebsiella aerogenes, ATCC15038, 20 h, Agar Dextrose dilutions, 37°C, 20 heures, read-out: Activité pharmacologique antimicrobienne (concentrations)
# Text: as §1, §2, §3, §4, §5, §6, §7, §8, §9
smiles,measurement,setting,value
"C[C@H](N)C(=O)N[C@@H]1CN(c2nc3c(cc2F)c(=O)c(C(=O)O)cn3C2CC2)[C@H]1C [Exemple 4aA, chlorhydratede l'acide 7-[(2S,3R)-2-méthyl-3-Ala-amino-1-azétidinyl]-1-cyclopropyl-6-fluoro-1,4-dihydro-4-oxo-1,8-naphtyridine-3-carboxylique]",Activité pharmacologique antimicrobienne (concentrations),[1],1 µg/ml
same,Activité pharmacologique antimicrobienne (concentrations),[1]; listed as 4aa,4 µg/ml
same,Activité pharmacologique antimicrobienne (concentrations),[2],"0,12 µg/ml"
same,Activité pharmacologique antimicrobienne (concentrations),[2]; listed as 4aa,"0,25 µg/ml"
same,Activité pharmacologique antimicrobienne (concentrations),[3],"0,25 µg/ml"
same,MIC,[3],0.5 µg/mL
same,Activité pharmacologique antimicrobienne (concentrations),[4],8 µg/ml
same,Activité pharmacologique antimicrobienne (concentrations),[4]; listed as 4aa,1 µg/ml
same,Activité pharmacologique antimicrobienne (concentrations),[5],1 µg/ml
same,MIC,[5],0.5 µg/mL
same,solubility,"[6]; pH 7,4, read-out: Solubilité pH 7,4",> 500 µg/mL
same,solubility,"[6]; water, read-out: Solubilité dans l'eau",> 500 µg/mL
same,Activité pharmacologique antimicrobienne (concentrations),[7],"0,5 µg/ml"
same,MIC,[7],0.25 µg/mL
same,MIC,[8],0.5 µg/mL
same,MIC,[9],4 µg/mL
same,Activité pharmacologique antimicrobienne (concentrations),[10],"0,12 µg/ml"
same,Activité pharmacologique antimicrobienne (concentrations),[10]; listed as 4aa,"0,25 µg/ml"
same,Activité pharmacologique antimicrobienne (concentrations),[11],"0,5 µg/ml"
same,Activité pharmacologique antimicrobienne (concentrations),[11]; listed as 4aa,2 µg/ml
same,Activité pharmacologique antimicrobienne (concentrations),[12],2 µg/ml
same,MIC,[12],1 µg/mL
same,Activité pharmacologique antimicrobienne (concentrations),[13],"0,5 µg/ml"
same,MIC,[13],1 µg/mL
same,MIC,[14],8 µg/mL
same,Activité pharmacologique antimicrobienne (concentrations),[15],1 µg/ml
same,MIC,[15],0.5 µg/mL
same,Activité pharmacologique antimicrobienne (concentrations),[16],1 µg/ml
same,MIC,[16],0.5 µg/mL
same,MIC,[17],0.12 µg/mL
same,MIC,[18],0.12 µg/mL
same,Activité pharmacologique antimicrobienne (concentrations),[19],"0,06 µg/ml"
same,Activité pharmacologique antimicrobienne (concentrations),[19]; listed as 4aa,"0,5 µg/ml"
same,MIC,[20],0.5 µg/mL
CCC[C@H](N)C(=O)NC1CN(c2nc3c(cc2F)c(=O)c(C(=O)O)cn3-c2ccc(F)cc2F)C1 [Exemple 4bN],MIC,[1],2 µg/mL
same,MIC,[2],0.5 µg/mL
same,MIC,[3],4 µg/mL
same,MIC,[4],4 µg/mL
same,MIC,[5],1 µg/mL
same,MIC,[7],1 µg/mL
same,MIC,[8],1 µg/mL
same,MIC,[9],4 µg/mL
same,MIC,[10],0.25 µg/mL
same,MIC,[11],2 µg/mL
same,MIC,[12],4 µg/mL
same,MIC,[13],0.5 µg/mL
same,MIC,[14],16 µg/mL
same,MIC,[15],2 µg/mL
same,MIC,[16],2 µg/mL
same,MIC,[17],0.25 µg/mL
same,MIC,[18],0.12 µg/mL
same,MIC,[19],0.12 µg/mL
same,MIC,[20],1 µg/mL
"C[C@@H](N)C(=O)NC1(C)CN(c2c(F)cc3c(=O)c(C(=O)O)cn(C4CC4)c3c2F)C1 [Exemple 4ca, chlorhydratede l'acide 7-(3-méthyl-3-D-Ala-amino-1-azétidinyl)-1-cyclopropyl-6,8-difluoro-1,4-dihydro-4-oxo-3-quinoléinecarboxylique]",MIC,[1],2 µg/mL
same,MIC,[2],0.5 µg/mL
same,MIC,[3],0.5 µg/mL
same,MIC,[4],8 µg/mL
same,MIC,[5],1 µg/mL
same,MIC,[7],1 µg/mL
same,MIC,[8],0.5 µg/mL
same,MIC,[9],4 µg/mL
same,MIC,[10],0.5 µg/mL
same,MIC,[11],1 µg/mL
same,MIC,[12],2 µg/mL
same,MIC,[13],1 µg/mL
same,MIC,[14],16 µg/mL
same,MIC,[15],0.5 µg/mL
same,MIC,[16],1 µg/mL
same,MIC,[17],0.25 µg/mL
same,MIC,[18],0.25 µg/mL
same,MIC,[19],0.25 µg/mL
same,MIC,[20],1 µg/mL
